{"source": "patent US9328060B2", "about": "“J-series prostaglandin-ethanolamides as novel therapeutics” (East Carolina University, priority 2013, dated 2016)", "key": {"[1]": {"tested_on": "COX-2 overexpressing squamous carcinoma cell line JWF2", "conditions": "JWF2, background section; cited from earlier work"}, "COX-2": {"biological_target": "T1, COX-2 (Mus musculus, UniProt Q05769)", "T1 construct": "endogenous in cells; host or cells: JWF2 keratinocytes", "T1 sequence (Q05769 18-604)": "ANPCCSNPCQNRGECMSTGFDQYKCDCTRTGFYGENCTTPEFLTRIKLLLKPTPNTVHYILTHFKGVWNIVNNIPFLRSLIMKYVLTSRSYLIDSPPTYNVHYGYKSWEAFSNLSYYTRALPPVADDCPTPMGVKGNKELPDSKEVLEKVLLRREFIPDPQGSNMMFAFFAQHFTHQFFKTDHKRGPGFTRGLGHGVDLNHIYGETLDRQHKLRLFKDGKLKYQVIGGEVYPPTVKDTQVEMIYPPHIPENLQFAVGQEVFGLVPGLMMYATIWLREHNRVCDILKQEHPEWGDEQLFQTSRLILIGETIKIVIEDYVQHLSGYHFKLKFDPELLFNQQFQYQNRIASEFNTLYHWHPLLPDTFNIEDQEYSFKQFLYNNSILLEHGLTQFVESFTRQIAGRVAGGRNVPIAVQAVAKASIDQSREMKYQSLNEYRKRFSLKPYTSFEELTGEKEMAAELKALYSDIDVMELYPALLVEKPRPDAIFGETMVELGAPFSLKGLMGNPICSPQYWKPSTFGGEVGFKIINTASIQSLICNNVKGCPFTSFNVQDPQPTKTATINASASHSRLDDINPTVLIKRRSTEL", "experiment": "LC/MS of J-series PG-ethanolamides in culture medium of AEA-treated cells", "format": "cell-based", "conditions": "COX-2 overexpressing cells; for J-series PGs identified in AEA-treated cells: FIG. 6C", "method": "To identify the specific J-series PGs that are produced in AEA-treated cells that overexpress COX-2 we treated the cells with AEA, collected the culture medium and analyzed J-series PGs using LC/MS.\nTo determine the direct role of COX-2 in AEA-induced ER stress, the requirement of COX-2 for J-series PG-ethanolamide synthesis was assessed. Results are depicted in FIG. 9D."}, "tumor cell": {"tested_on": "tumor cell", "experiment": "Tumor cell death (FIG. 7)", "format": "cell-based", "conditions": "compared to 15d-PGJ"}, "[2]": {"tested_on": "tumorigenic keratinocytes (Jwf2)", "experiment": "Apoptosis in tumorigenic keratinocytes (FIG. 14)", "format": "cell-based", "conditions": "Jwf2, FIG. 14"}, "tumor cells": {"tested_on": "tumor cells", "experiment": "Selective toxicity in tumor cells (FIG. 15)", "format": "cell-based"}, "[3]": {"tested_on": "Tumorigenic JWF2 keratinocytes", "experiment": "MTS cell viability, tumorigenic JWF2 keratinocytes", "format": "cell-based", "conditions": "various concentrations, FIG. 1", "method": "Tumorigenic JWF2 keratinocytes were treated with various concentrations of AEA and cell viability measured using MTS analysis. […] An interesting feature of tumorigenic keratinocytes is that they overexpress COX-2. However, non-tumorigenic keratinocytes contain low basal levels of COX-2. Therefore, the role of COX-2 in the cytotoxicity of AEA was examined.\nJWF2 tumorigenic keratinocytes were treated with each of these prostaglandins and cell survival measured in MTS assays."}, "[4]": {"tested_on": "non-tumorigenic HaCaT keratinocytes", "experiment": "MTS cell viability, non-tumorigenic HaCaT keratinocytes", "format": "cell-based", "conditions": "FIG. 1"}, "eIF2a phosphorylation": {"tested_on": "eIF2a phosphorylation", "experiment": "ER stress (eIF2a phosphorylation staining) in HaCaT transfected with COX-2 or empty vector", "format": "cell-based", "conditions": "HaCaT transfected with COX-2, relative to empty vector transfected cells, FIG. 2", "method": "Since it was determined that AEA-induced cell death required COX-2 we examined whether ER stress also required COX-2. In this experiment we utilized HaCaT keratinocytes which express low basal levels of COX-2. The cells were transfected with an empty vector (pcDNA6.1) or an expression vector containing COX-2. In FIG. 2 the red signal indicates COX-2 expression, green indicates P-eIF2a phosphorylation and the blue stains the nuclear membrane for orientation."}, "activated caspase-3": {"tested_on": "activated caspase-3", "experiment": "Apoptosis (activated caspase-3 staining) with or without COX-2", "format": "cell-based", "text": "Red staining indicates COX-2 while the green stain indicates activated caspase-3, a hallmark for apoptosis."}, "[5]": {"tested_on": "D- and J-series PG synthesis", "experiment": "Prostaglandin synthesis in JWF2 cells by ELISA", "format": "cell-based", "conditions": "various concentrations of AEA, FIG. 6A", "method": "To determine if D- and J-series PGs are synthesized endogenously, JWF2 cells were treated with various concentrations of AEA and prostaglandin synthesis measured using ELISA assays."}, "HaCaT keratinocytes": {"tested_on": "HaCaT keratinocytes", "conditions": "low basal COX-2, background section; cited from earlier work"}, "[6]": {"tested_on": "CHOP10 expression and Caspase-3 cleavage", "experiment": "CHOP10 expression and caspase-3 cleavage (FIGS. 12, 13)", "format": "cell-based"}, "H-PGDS and L-PGDS": {"tested_on": "H-PGDS and L-PGDS", "experiment": "AEA-induced PGD2 and PGJ2 production (FIG. 11)", "format": "cell-based"}, "epidermal tumor": {"tested_on": "epidermal tumor", "conditions": "background section; cited from earlier work"}, "[7]": {"tested_on": "Lewis lung adenocarcinoma", "conditions": "oral administration, background section; cited from earlier work"}}}
{"molecule": "CCCCC/C=C/C=C1/C(=O)C=C[C@@H]1C/C=C\\CCCC(=O)O", "note": "[15-deoxy Δ^12,14 PGJ2, 15-deoxy-Δ^12,14-Prostaglandin J2]", "values": [{"measurement": "cell death", "setting": "[1]", "value": "inducers of cell death"}]}
{"molecule": "CCCCC/C=C/C=C1/C(=O)C=CC1C/C=C\\CCCC(=O)NCCO", "note": "(stereo not shown) [15d-PGJ-EA, 15-deoxy Δ^12,14-prostagladin J2-ethanolamide]", "values": [{"measurement": "relative abundance among J-series PG-EAs produced", "setting": "COX-2", "value": "most abundant produced"}, {"measurement": "J-series PGs identified in AEA-treated cells", "setting": "COX-2", "value": "metabolic products of AEA"}, {"measurement": "tumor cell death", "setting": "tumor cell", "value": "potent inducer of tumor cell death"}, {"measurement": "apoptosis", "setting": "[2]", "value": "induces apoptosis"}, {"measurement": "toxicity, tumor cell selectivity", "setting": "tumor cells", "value": "selectively toxic in tumor cells"}]}
{"molecule": "CCCCC/C=C\\C/C=C\\C/C=C\\C/C=C\\CCCC(=O)NCCO", "note": "[AEA, arachidonoyl ethanolamide]", "values": [{"measurement": "cell viability (MTS absorbance)", "setting": "[3]", "value": "concentration-dependent decline in tumor cell viability"}, {"measurement": "cell viability (MTS absorbance)", "setting": "[4]", "value": "did not lead to a loss of viability"}, {"measurement": "eIF2a phosphorylation (ER stress)", "setting": "eIF2a phosphorylation", "value": "significant increase in eIF2a phosphorylation"}, {"measurement": "apoptosis (activated caspase-3)", "setting": "activated caspase-3; cells with COX-2, FIG. 3", "value": "induced apoptosis"}, {"measurement": "apoptosis (activated caspase-3)", "setting": "activated caspase-3; in the absence of COX-2, FIG. 3", "value": "did not undergo apoptosis"}, {"measurement": "D-series PG synthesis", "setting": "[5]", "value": "concentration-dependent increase"}, {"measurement": "J-series PG synthesis", "setting": "[5]", "value": "concentration-dependent increase"}, {"measurement": "cell death", "setting": "[1]", "value": "induce cell death"}, {"measurement": "cell death", "setting": "HaCaT keratinocytes", "value": "does not induce cell death"}]}
{"molecule": "CCCCCC(O)CC=C1C(=O)C=CC1CC=CCCCC(=O)NCCO", "note": "(stereo not shown) [D12-PGJ-EA]", "values": [{"measurement": "J-series PGs identified in AEA-treated cells", "setting": "COX-2", "value": "metabolic products of AEA"}]}
{"molecule": "CCCCC[C@H](O)/C=C/[C@H]1C(=O)C[C@H](O)[C@@H]1C/C=C\\CCCC(=O)NCCO", "note": "[PGD2-EA]", "values": [{"measurement": "CHOP10 expression", "setting": "[6]; FIG. 13", "value": "increased"}, {"measurement": "Cl-Casp3 expression", "setting": "[6]; FIG. 13", "value": "increased"}, {"measurement": "cell death", "setting": "[1]", "value": "cytotoxic"}]}
{"molecule": "CCCCC[C@H](O)/C=C/[C@H]1C(=O)C[C@H](O)[C@@H]1C/C=C\\CCCC(=O)O", "note": "[PGD2]", "values": [{"measurement": "cell death", "setting": "[1]", "value": "cytotoxic"}]}
{"molecule": "CCCCC[C@H](O)/C=C/[C@H]1C(=O)C=C[C@@H]1C/C=C\\CCCC(=O)O", "note": "[PGJ2]", "values": [{"measurement": "cell death", "setting": "[1]", "value": "inducers of cell death"}]}
{"molecule": "CCCCCC(O)C=CC1C(=O)C=CC1CC=CCCCC(=O)NCCO", "note": "(stereo not shown) [PGJ-EA]", "values": [{"measurement": "J-series PGs identified in AEA-treated cells", "setting": "COX-2", "value": "metabolic products of AEA"}]}
{"molecule": "Cl[Se](Cl)(Cl)Cl", "note": "[SeCL4]", "values": [{"measurement": "AEA-induced PGD2 production", "setting": "H-PGDS and L-PGDS", "value": "reversed"}, {"measurement": "AEA-induced PGJ2 production", "setting": "H-PGDS and L-PGDS", "value": "reversed"}, {"measurement": "AEA-induced CHOP10 expression", "setting": "[6]; FIG. 12", "value": "inhibited"}, {"measurement": "AEA-induced Caspase-3 cleavage", "setting": "[6]; indicator of apoptosis, FIG. 12", "value": "inhibited"}]}
{"molecule": "Cc1c(C(=O)c2cccc3ccccc23)c2cccc3c2n1[C@H](CN1CCOCC1)CO3", "note": "[WIN-55, 212-2]", "values": [{"measurement": "epidermal tumor growth", "setting": "epidermal tumor", "value": "blocked"}]}
{"molecule": "CCCCCc1cc(O)c2c(c1)OC(C)(C)[C@@H]1CCC(C)=C[C@@H]21", "note": "[Δ^9-THC, Δ^9-tetrahydrocannabinol]", "values": [{"measurement": "Lewis lung adenocarcinoma growth", "setting": "[7]", "value": "reduce Lewis lung adenocarcinoma growth"}]}
